Measured values reported in US12338203B2 (TAISHO PHARMACEUTICAL CO., LTD., priority 2019, dated 2025).

The compounds below were run against T1, human LPAR1 (Homo sapiens, UniProt Q92633) (assay: Test Example 1: antagonism against response of LPA-induced increase in intracellular Ca2+ concentration in RH7777 cells stably expressing human LPAR1). Conditions: RH7777 cells stably expressing human LPAR1; Fluo-4 fluorescence, FDSS6000; read-out: IC50 value (concentration producing 50% antagonism against response of LPA-induced increase in intracellular Ca2+ concentration) (converted).
T1 construct: expressed in transfected cells
Format: cell-based
Procedure, shortened: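 Ca2+ flux read at 540 nm emission (480 nm excitation) after LPA addition to human LPAR1-expressing RH7777 cells exposed to compound for 30 min, 37 °C, pH 7.4 HEPES-buffered HBSS. Response relative to no-compound control after basal subtraction; IC50 fitted from concentration–response.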

T1 sequence (Q92633 whole entry): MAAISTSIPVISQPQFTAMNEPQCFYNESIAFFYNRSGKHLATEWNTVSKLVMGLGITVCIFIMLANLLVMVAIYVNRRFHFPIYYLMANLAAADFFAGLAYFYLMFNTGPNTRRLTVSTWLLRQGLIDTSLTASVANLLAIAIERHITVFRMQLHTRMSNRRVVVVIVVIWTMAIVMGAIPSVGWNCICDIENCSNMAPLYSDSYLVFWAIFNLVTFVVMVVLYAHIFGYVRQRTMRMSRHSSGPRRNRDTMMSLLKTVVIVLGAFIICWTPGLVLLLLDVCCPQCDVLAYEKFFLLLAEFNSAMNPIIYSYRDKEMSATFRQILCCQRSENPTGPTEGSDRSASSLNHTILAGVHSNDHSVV

IC50 | SMILES
3.78 nM | CCOc1cc(C(C)N(CCCCc2ccccc2)C(=O)NC2(C(=O)O)CC(F)(F)C2)cc(OC)c1C (stereo not drawn) [Example 1-68]
672 nM | CCOc1cc([C@@H](C)N(CCO[C@@H](C)c2ccccc2)C(=O)NC2(C(=O)OC)CC2)c(Cl)c(OCC)c1C(C)=O [Example 6-3, Methyl 1-[([(1R)-1-(4-Acetyl-2-Chloro-3,5-Diethoxyphenyl)Ethyl]{2-[(1S)-1-Phenylethoxy]Ethyl}Carbamoyl)Amino]Cyclopropane-1-Carboxylate]
10.5 nM | CCOc1cc([C@@H](C)N(CC(C)CCc2ccccc2)C(=O)NC2(C(=O)O)CC(F)(F)C2)cc(OCC)c1C (stereo partly drawn) [Example 4-38]
34.7 nM | COc1cc(C(C)N(CCOCc2ccccc2)C(=O)NC2(C(=O)O)CCOCC2)cc(OC)c1C1CC1 (stereo not drawn) [Example 5-173]
132 nM | Cc1ccc(C(C)N(CCCCc2ccccc2)C(=O)NC2(C(=O)O)CC(F)(F)C2)cc1 (stereo not drawn) [Example 5-7]
3.17 nM | CCOc1cc([C@@H](C)N(CCCCc2ccccc2)C(=O)NC(C)(C)C(=O)O)cc(OCC)c1C(C)=O [Example 1-1, N-{[(1R)-1-(4-Acetyl-3,5-Diethoxyphenyl)Ethyl](4-Phenylbutyl) Carbamoyl}-2-Methylalanine]
8.93 nM | CCOc1cc(C(C)N(CCCCc2ccccc2)C(=O)NC2(C(=O)O)CC(F)(F)C2)cc(OCC)c1C(C)(C)O (stereo not drawn) [Example 1-32]
28.4 nM | CCOc1cc([C@@H](C)N(CCN2Cc3ccccc3C2)C(=O)NC2(C(=O)O)CC(F)(F)C2)cc(OCC)c1C [Example 4-31]
4.39 nM | CCOc1c(C(C)=O)ccc([C@@H](C)N(CCO[C@H](C)c2ccccc2)C(=O)NC2(C(=O)O)CC(OCC)C2)c1C (stereo partly drawn) [Example 4-158]
2.56 nM | CCOc1cc([C@@H](C)N(CCCCc2ccccc2)C(=O)NC2(C(=O)O)CCOCC2)c(Cl)c(OCC)c1C(C)=O [Example 5-51]
191 nM | CCNc1cc([C@H](C)N(CCCCc2ccccc2)C(=O)NC2(C(=O)O)CC(F)(F)C2)cc(OCC)c1C(C)=O [Example 5-109]
7.07 nM | COc1cc(C(CO)N(CCCCc2ccccc2)C(=O)NC2(C(=O)O)CC(F)(F)C2)cc(OC)c1C (stereo not drawn) [Example 3-6]
5.87 nM | CCOc1cc([C@@H](C)N(CCCC(F)(F)c2ccccc2)C(=O)NC2(C(=O)O)CCOCC2)cc(OCC)c1C(C)O (stereo partly drawn) [Example 4-77]
2.34 nM | CCNc1cc([C@@H](C)N(CCCCc2ccccc2)C(=O)NC2(C(=O)O)CC(F)(F)C2)cc(OCC)c1C#N [Example 5-115]
1.03 nM | CCOc1cc([C@@H](C)N(CCO[C@@H](C)c2ccccc2)C(=O)NC2(C(=O)O)CC(OC)C2)cc(OCC)c1C1CC1 (stereo partly drawn) [Example 4-129, cis-1-[([(1R)-1-(4-cyclopropyl-3,5-diethoxyphenyl)ethyl]{2-[(1S)-1-phenylethoxy]ethyl}carbamoyl)amino]-3-methoxycyclobutane-1-carboxylic acid]
2.31 nM | CCOc1cc([C@@H](C)N(CCCCc2ccccc2)C(=O)NC2(C(=O)O)CC(=O)C2)cc(OCC)c1C [Example 1-111]
3.68 nM | CCOc1cc([C@@H](C)N(CCCC(F)(F)c2ccccc2)C(=O)NC2(C(=O)O)CCOCC2)cc(OCC)c1C(C)=O [Example 4-73]
17.1 nM | CC(c1cc(Cl)cc(Cl)c1)N(CCCCc1ccccc1)C(=O)NC1(C(=O)O)CC(F)(F)C1 (stereo not drawn) [Example 5-21]
1.46 nM | CCOc1cc(C(C)N(CCOCc2ccccc2)C(=O)NC2(C(=O)O)CCC2)c(Cl)c(OCC)c1C(C)=O (stereo not drawn) [Example 5-189]
3.13 nM | CCOc1cc([C@@H](C)N(CCCCc2ccccc2)C(=O)NC2(C(=O)O)CC(OCC)C2)cc(OCC)c1C (stereo partly drawn) [Example 1-100]
2.53 nM | CCOc1cc([C@@H](C)N(CCCCc2ccccc2)C(=O)NC2(C(=O)O)CC(OC)C2)cc(OCC)c1C(C)=O (stereo partly drawn) [Example 1-85, 1-({[(1R)-1-(4-Acetyl-3,5-Diethoxyphenyl)Ethyl](4-Phenylbutyl) Carbamoyl}Amino)-3-Methoxycyclobutane-1-Carboxylic Acid]
3.68 nM | CCOc1cc(C(C)N(CCCCc2ccccc2)C(=O)NC2(C(=O)O)CC(F)(F)C2)cc(OCC)c1CO (stereo not drawn) [Example 1-50, 1-{[{1-[3,5-Diethoxy-4-(Hydroxymethyl)Phenyl]Ethyl}(4-Phenylbutyl) Carbamoyl]Amino}-3,3-Difluorocyclobutane-1-Carboxylic Acid]
6.4 nM | COc1cc(C(C)N(CCO[C@@H](C)c2ccccc2)C(=O)NC2(C(=O)O)CCOCC2)c(Cl)c(OC)c1C1CC1 (stereo partly drawn) [Example 5-180]
506 nM | CCOc1cc(C(C)N(CCCCc2ccccc2)C(=O)NC2(c3nc(=O)o[nH]3)CCCC2)cc(OCC)c1C (stereo not drawn) [Example 9-1, N-[1-(3,5-Diethoxy-4-Methylphenyl)Ethyl]-N′-[1-(5-Oxo-2,5-Dihydro-1,2,4-Oxadiazol-3-Yl)Cyclopentyl]-N-(4-Phenylbutyl) Urea]
3.37 nM | COc1cc(C(C)N(CCO[C@@H](C)c2ccccc2)C(=O)NC2(C(=O)O)CC(F)(F)C2)c(C)c(OC)c1C1CC1 (stereo partly drawn) [Example 5-150]
10.4 nM | CCOc1cc([C@@H](C)N(CCOC(C)(C)c2ccccc2)C(=O)NC2(C(=O)O)CC(F)(F)C2)cc(OCC)c1C1CC1 [Example 4-160]
12.7 nM | CCOc1cc([C@@H](C)N(CCCCc2ccccc2)C(=O)NC2(C(=O)O)Cc3ccccc3C2)cc(OCC)c1C [Example 1-123, 2-({[(1R)-1-(3,5-Diethoxy-4-Methylphenyl)Ethyl](4-Phenylbutyl) Carbamoyl}Amino)-2,3-Dihydro-1H-Indene-2-Carboxylic Acid]

IC50 | SMILES
1.42 nM | CCOc1cc([C@@H](C)N(CCOCc2ccccc2)C(=O)NC2(C(=O)O)CC(OC)C2)c(C)c(OCC)c1C(C)=O (stereo partly drawn) [Example 5-73]
0.695 nM | CCOc1cc(C(C)N(CCOCc2ccccc2)C(=O)NC2(C(=O)O)CC(OCC)C2)c(Cl)c(OCC)c1C1CC1 (stereo not drawn) [Example 5-221]
0.712 nM | CCOc1cc(C(C)N(CCOCc2ccccc2)C(=O)NC2(C(=O)O)CC(OC)C2)c(C)c(OCC)c1C1CC1 (stereo not drawn) [Example 5-201]
1.92 nM | CCOc1cc(C(C)N(CCOCc2ccccc2)C(=O)N[C@]2(C(=O)O)C[C@@H](OCC)C2)c(C)c(OCC)c1C(C)=O (stereo partly drawn) [Example 5-214]
1.1 nM | CCOc1cc(C(C)N(CCOCc2ccccc2)C(=O)NC2(C(=O)O)CC(OCC)C2)cc(OCC)c1C1CC1 (stereo not drawn) [Example 5-211]
23.6 nM | CCOc1cc([C@@H](C)N(CCC(F)(F)Cc2ccccc2)C(=O)NC2(C(=O)O)CC2)cc(OCC)c1C1CC1 [Example 4-80]
8.86 nM | CCCOc1cc(OCC)cc(C(C)N(CCCCc2ccccc2)C(=O)NC2(C(=O)O)CC(F)(F)C2)c1 (stereo not drawn) [Example 5-17]
7.89 nM | CCOc1cc([C@@H](C)N(CCC(F)(F)Cc2ccccc2)C(=O)NC2(C(=O)O)CCC2)cc(OCC)c1C(C)=O [Example 4-81]
3.88 nM | CCOc1cc([C@@H](C)N(CCCCc2ccccc2)C(=O)N[C@]2(C(=O)O)C[C@H](OC)C2)c(Cl)c(OCC)c1C(C)=O [Example 5-49]
33 nM | CCOc1cc(C(C)N(CCCCc2ccccc2)C(=O)NC2(C(=O)O)CC(F)(F)C2)cc(OCC)c1C(C)=O (stereo not drawn) [Example 1-56]
3.94 nM | CCOc1c(C(C)=O)ccc([C@@H](C)N(CCCC(F)(F)c2ccccc2)C(=O)N[C@]2(C(=O)O)C[C@@H](OC)C2)c1C [Example 4-63]
12.1 nM | COc1cc([C@@H](C)N(CCOCc2ccccc2)C(=O)NC2(C(=O)O)CC(OC)C2)cc(OC)c1C(C)=O (stereo partly drawn) [Example 5-121]
5.87 nM | CCOc1c(C(C)O)ccc([C@@H](C)N(CCCCc2ccccc2)C(=O)NC2(C(=O)O)CC(F)(F)C2)c1C (single isomer, unassigned) [Example 1-78]
3.54 nM | CCOc1cc([C@@H](C)N(CCCCc2ccccc2)C(=O)NC2(C(=O)O)CCC2)cc(OCC)c1C [Example 1-24]
4 nM | CCOc1cc(C(C)N(CCOCc2ccccc2)C(=O)NC2(C(=O)O)CCOCC2)c(C)c(OCC)c1C(C)=O (stereo not drawn) [Example 5-226]
7.11 nM | CCOc1cc([C@@H](C)N(CCO[C@@H](C)c2ccccc2)C(=O)NC2(C(=O)O)CC(OC)C2)cc(OCC)c1C(C)O (stereo partly drawn) [Example 4-125]
1010 nM | CCOC(=O)C1(NC(=O)N(CCO[C@@H](C)c2ccccc2)C(C)c2cc(OCC)c(C(C)=O)c(OCC)c2)CC(OCC)C1 (stereo partly drawn) [Example 6-9]
3.62 nM | CCOc1cc(C(C)N(CCCCc2ccccc2)C(=O)NC2(C(=O)O)CC(F)(F)C2)ccc1C(C)=O (stereo not drawn) [Example 5-8]
3.22 nM | CCOc1cc([C@@H](C)N(CCO[C@@H](C)c2ccccc2)C(=O)NC2(c3nn[nH]n3)CC2)cc(OCC)c1C(C)=O [Example 10-1, N-[(1R)-1-(4-Acetyl-3,5-Diethoxyphenyl)Ethyl]-N-{2-[(1S)-1-Phenylethoxy]Ethyl}-N′-[1-(2H-Tetrazol-5-Yl)Cyclopropyl]Urea]
1670 nM | CCOc1cc(C(C)N(CCCCc2ccccc2)C(=O)NC2(C(=O)O)CCC(C(=O)O)CC2)cc(OCC)c1C (stereo not drawn) [Example 1-120]
3.68 nM | CCOc1c(C(C)=O)ccc([C@@H](C)N(CCO[C@H](C)c2ccccc2)C(=O)NC2(C(=O)O)CC(OC)C2)c1C (stereo partly drawn) [Example 4-154]
0.847 nM | CCOc1cc(C(C)N(CCOCc2ccccc2)C(=O)NC2(C(=O)O)CC(OCC)C2)c(Cl)c(OCC)c1C1CC1 (stereo not drawn) [Example 5-213]
0.621 nM | CCOc1cc([C@@H](C)N(CCCCc2ccccc2)C(=O)NC2(C(=O)O)CCC2)cc(OCC)c1C(C)=O [Example 1-20]
10.8 nM | COc1cc(C(C)N(CCOCc2ccccc2)C(=O)NC2(C(=O)O)CCC2)cc(OC)c1C1CC1 (stereo not drawn) [Example 5-131]
3.27 nM | CCOc1c(C2CC2)ccc([C@@H](C)N(CCO[C@H](C)c2cccc(Cl)c2)C(=O)NC2(C(=O)O)CC(F)(F)C2)c1C [Example 4-181]
45.5 nM | CCOc1cccc(C(C)N(CCCCc2ccccc2)C(=O)NC2(C(=O)O)CC(F)(F)C2)c1 (stereo not drawn) [Example 5-3]
4.97 nM | COc1cc(C(C)N(CCOCc2ccccc2)C(=O)NC2(C(=O)O)CCC2)c(Cl)c(OC)c1C(C)=O (stereo not drawn) [Example 5-132]
